Data reported in patent publication US20150184246A1, “BIOMARKERS OF RESPONSE TO PROTEASOME INHIBITORS” (Millennium Pharmaceuticals, Inc., priority 2011, published 2015).
Structures can show the parent of a compound that is named as a salt. Where two headings read alike, the source gives them in different places.

Columns and labels:
[1] = test system: hematological and solid tumor xenograft models; settings: range of hematological and solid tumor xenograft models; cited from earlier work
[2] = test system: multiple myeloma patients (t(4;14) / NRAS status of tumor); test: t(4;14) and NRAS status versus response in patients with tumor subtype data; assay type: in vivo, human
From the text: Table 12 details the t(4;14) and NRAS status of the current dataset for patients both with tumor subtype data (Mulligan et al. (2007) Blood 109:3177-3188) and who were response-evaluable (n=40).

[3] = test system: relapsed multiple myeloma; settings: cited from earlier work
[4] = test system: t(4;14) translocation in MM; settings: bortezomib alone or in combination; cited from earlier work
[5] = test system: multiple myeloma patients (NRAS / KRAS status of tumor); test: Pharmacogenomic analysis: pre-treatment NRAS/KRAS mutation status versus response, time-to-progression and overall survival; assay type: in vivo, human
From the text: Patient samples and response criteria from patients participating in these studies, as well as the following additional studies described below were sought for use in pharmacogenomic analyses to identify markers associated with patient survival. […] The bone marrow aspirates were collected prior to the patient's treatment in the studies. […] Dexamethasone is a synthetic adrenocorticosteroid, CAS Registry No. […], administered as tablets (DECADRON® Merck & Co., Inc.). The trials are described in the following paragraphs.
Upon collection of patient bone marrow aspirate, the myeloma cells were enriched via rapid negative selection. The enrichment procedure employs a cocktail of cell-type specific antibodies coupled with an antibody that binds red blood cells RosetteSep (Stem Cell Technologies). The antibody cocktail has antibodies with the following specificity: CD14 (monocytes), CD2 (T and NK cells), CD33 (myeloid progenitors and monocytes), CD41 (platelets and megakaryocytes), CD45RA (naïve B and T cells) and CD66b (granulocytes). The antibodies cross-linked the non-myeloma cell types to the red blood cells in the samples. The bound cell types were removed using a modified ficoll density gradient. Myeloma cells were then collected and frozen. In the international studies, the first two samples from each site were collected and subjected to RNA isolation so that feedback on quantity and quality could be provided; ultimately Phase 2 and 3 trials provided a similar percentage of informative samples. Control bone marrow plasma cell samples were obtained from normal donors (AllCells, Berkeley, Calif.).
Flow through from the RNEASY® column was clarified by centrifugation, then concentrated about 10-fold with centrifugal ultrafilters (MICROCON® centrifugal filter device, YM-30 membrane (30 kDa limit), Millipore Corp. Billerica, Mass.). Impurities were removed using the Qiagen QIAMP® DNA Micro Kit. DNA from the sample was amplified using the Qiagen REPLI-G® WGA kit. Mutation status of DNA from 133 bone marrow tumor biopsies was determined by testing a panel of cancer genes and known tumor suppressors using the Sequenom (San Diego, Calif.) mass spectrometry genotype analysis system.
Rather, the platform interrogated tumor DNA only for specific sequences that were previously implicated in cancer (i.e. ‘hotspot’ mutations), relying largely on the prior knowledge that these are highly relevant in human cancer. The panel of mutations evaluated consisted of the ONCOCARTA™ version 1.0 and custom assays designed in collaboration with Sequenom and Millennium to expand the list of mutations surveyed to 514 known mutations in 41 oncogenes and tumor suppressor genes. Table 5 lists genes with mutations included in the panel and the number in parentheses 0 indicates the approximate number of mutations targeted in assays of the genes.
The custom assays were designed using TYPEPLEX® chemistry with single-base extension which determines the expected mass weight of the extend products to ensure separation between all potential peaks found within a multiplexed reaction. 15 nl of amplified and extended product is spotted on a 384 SpectroCHIP II using a Nanodispenser. A 3-point calibrant is added to every chip to ensure proper performance of the Sequenom Maldi-tof compact mass spectrometer. The SpectroCHIP II is placed in the Sequenom MALDI-TOF compact mass spectrometer. The mass spectrometer is set to fire a maximum of 9 acquisitions for each spot on the 384 well SpectroCHIP. TypePLEX Gold kit SpectroCHIP II is used following manufacturers recommended protocols.
Analysis is performed using Sequenom analysis software, MassARRAY® Typer Analyzer v4 with a mutation call filter of ≧8%, Signal:Noise>5 (background), followed by a manual inspections for false positives due to Impurities (ie Salts). Default threshold for positive mutant call is a minimal 10% mutant allele frequency, though signal as low as 3% may be detected. […]

[6] = test system: relapsed and refractory myeloma; settings: cited from earlier work
[7] = test system: relapsed or refractory multiple myeloma; test: APEX phase 3 trial (039), bortezomib versus high-dose dexamethasone, EBMT response criteria; assay type: in vivo, human; settings: for Complete response / Complete response achieved, number of patients / Median duration of response / One-year survival / complete response plus near-complete response / response rate (complete plus partial response (CR+PR)) / Median time to response: -039 trial; for Median time to response: both groups
Method: Patients who received dexamethasone were treated for a maximum of 280 days by the following method: received up to four 5-week treatment cycles, followed by up to five 4-week treatment cycles. Within each 5-week treatment cycle, the patient received dexamethasone 40 mg/day PO, once daily on Days 1 to 4, 9 to 12, and 17 to 20 of a 35-day cycle. Within each 4-week treatment cycle, the patient received dexamethasone 40 mg/day PO once daily on Days 1 to 4 of a 28 day cycle.
The following section presents more detailed information on the -039 trial. During the study, disease response was assessed according to the European Group for Blood and Marrow Transplant (EBMT) criteria as presented in Table 3.
Response and date of disease progression was determined by computer algorithm that integrated data from a central laboratory and case report forms from each clinical site, according to the Blade criteria (Table 3). […] See Richardson et al., supra.
Disease progression was determined by Blade criteria as described in Table 3 and above. […] The date of progression was determined by computer algorithm. P-value from log-rank test adjusted by actual randomization factors. See Richardson et al., supra.

[8] = NRAS mutant and not t(4; 14), N=32
[9] = NRAS wild type and not t(4; 14), N=32
[10] = in this set of patients (pharmacogenomic set)
[11] = totals (all samples of the 2-by-2 table)
[12] = bortezomib n = 315, dexamethasone n = 312
[13] = bortezomib versus dexamethasone

Structure (SMILES): CC(C)C[C@H](NC(=O)CNC(=O)c1cc(Cl)ccc1Cl)B1OC(=O)C(CC(=O)O)(CC(=O)O)O1 [Ixazomib citrate, 2,2′-{2-[(1R)-1-({[(2,5dichlorobenzoyl)amino]acetyl}amino)-3-methylbutyl]-5-oxo-1,3,2-dioxaborolane-4,4-diyl}diacetic acid]
- anti-tumor activity [1]: has anti-tumor activity

Structure (SMILES): CC(C)C[C@H](NC(=O)[C@H](Cc1ccccc1)NC(=O)c1cnccn1)B(O)O [bortezomib, N(pyrazine)carbonyl-L-phenylalanine-L-leucine boronic acid]
- Non-response, number of patients [2, 8]: 10
- Response, number of patients [2, 8]: 0
- Non-response, number of patients ([2]; NRAS mutant, n = 40 cohort): 10
- Response, number of patients ([2]; NRAS mutant, n = 40 cohort): 1
- Non-response, number of patients [2, 9]: 11
- Response, number of patients [2, 9]: 11
- Non-response, number of patients ([2]; NRAS wild type, n = 40 cohort): 13
- Response, number of patients ([2]; NRAS wild type, n = 40 cohort): 16
- Non-response, number of patients ([2]; Other subtypes, n = 40 cohort): 21
- Response, number of patients ([2]; Other subtypes, n = 40 cohort): 11
- Non-response, number of patients ([2]; t(4; 14), n = 40 cohort): 2
- Response, number of patients ([2]; t(4; 14), n = 40 cohort): 6
- complete response (CR)+partial response (PR) rate ([3]; bortezomib 1.0 mg/m^2, Study -024): 30%
- complete response (CR)+partial response (PR) rate ([3]; bortezomib 1.3 mg/m^2, Study -024): 38%
- effect on poor prognosis associated with the t(4;14) translocation [4]: at least partially overcomes the poor prognosis
- Non-response, number of patient samples ([5]; KRAS mutant): 8
- Response, number of patient samples ([5]; KRAS mutant): 9
- Non-response, number of patient samples ([5]; KRAS wild type): 34
- Response, number of patient samples ([5]; KRAS wild type): 23
- Non-response, number of patient samples ([5]; NRAS mutant): 14
- Response, number of patient samples ([5]; NRAS mutant): 1
- Non-response, number of patient samples ([5]; NRAS wild type): 28
- Response, number of patient samples ([5]; NRAS wild type): 31
- CR+PR rate [5, 10]: 32%
- overall response rate [5, 10]: 42.3%
- time-to-progression after bortezomib treatment ([5]; patients whose pre-treatment bone marrow tumor samples had NRAS mutations): significantly lower
- Non-response, number of patient samples [5, 11]: 42
- Response, number of patient samples [5, 11]: 32
- CR+PR+MR, number of patients ([6]; Study -025, of 193 patients): 67 patients
- CR+PR, number of patients ([6]; Study -025, of 193 patients): 53 patients
- CR+PR rate to bortezomib alone ([6]; Study -025): 27%
- overall response rate (CR+PR+minimal response (MR)) to bortezomib alone ([6]; Study -025): 35%
- Complete response [7]: 6%
- Complete response achieved, number of patients [7]: 20 patients
- Median duration of response [7]: 8 months
- One-year survival [7]: 80%
- complete response plus near-complete response [7]: 13%
- response rate (complete plus partial response (CR+PR)) [7]: 38%
- Median time to response [7]: 43 days
- decrease in risk of death ([7]; bortezomib group versus dexamethasone, first year after enrollment): 41%
- Best Confirmed Response: CR + PR + MR [7, 12]: 146 (46) n (%)
- Best Confirmed Response: Complete Response [7, 12]: 20 (6) n (%)
- Best Confirmed Response: Minor Response [7, 12]: 25 (8) n (%)
- Best Confirmed Response: Near CR: IF+ [7, 12]: 21 (7) n (%)
- Best Confirmed Response: No Change [7, 12]: 137 (43) n (%)
- Best Confirmed Response: Not Evaluable [7, 12]: 10 (3) n (%)
- Best Confirmed Response: Overall Response Rate (CR + PR) [7, 12]: 121 (38) n (%)
- Best Confirmed Response: Progressive Disease [7, 12]: 22 (7) n (%)
- Best Confirmed Response: SWOG Remission [7, 12]: 46 (15) n (%)
- Difference (95% CI) in CR + PR + MR [7, 13]: 0.12 (0.04, 0.19)
- Difference (95% CI) in Complete Response [7, 13]: 0.06 (0.03, 0.09)
- Difference (95% CI) in Minor Response [7, 13]: −0.09 (−0.14, −0.04)
- Difference (95% CI) in Near CR: IF+ [7, 13]: 0.06 (0.03, 0.09)
- Difference (95% CI) in No Change [7, 13]: −0.04 (−0.12, 0.04)
- Difference (95% CI) in Not Evaluable [7, 13]: −0.01 (−0.04, 0.02)
- Difference (95% CI) in Overall Response Rate (CR + PR) [7, 13]: 0.20 (0.14, 0.27)
- Difference (95% CI) in Partial Response [7, 13]: 0.15 (0.08, 0.21)
- Difference (95% CI) in Progressive Disease [7, 13]: −0.06 (−0.11, −0.01)
- Difference (95% CI) in SWOG Remission [7, 13]: 0.09 (0.05, 0.14)

Structure (SMILES): C[C@@H]1C[C@H]2[C@@H]3CCC4=CC(=O)C=C[C@]4(C)[C@@]3(F)[C@@H](O)C[C@]2(C)[C@@]1(O)C(=O)CO [dexamethasone]
- Non-response, number of patient samples ([5]; KRAS mutant): 6
- Response, number of patient samples ([5]; KRAS mutant): 3
- Non-response, number of patient samples ([5]; KRAS wild type): 14
- Response, number of patient samples ([5]; KRAS wild type): 8
- Non-response, number of patient samples ([5]; NRAS mutant): 3
- Response, number of patient samples ([5]; NRAS mutant): 3
- Non-response, number of patient samples ([5]; NRAS wild type): 17
- Response, number of patient samples ([5]; NRAS wild type): 8
- Non-response, number of patient samples [5, 11]: 20
- Response, number of patient samples [5, 11]: 11
- Complete response [7]: < 1%
- Complete response achieved, number of patients [7]: 2 patients
- Median duration of response [7]: 5.6 months
- One-year survival [7]: 66%
- complete response plus near-complete response [7]: 2%
- response rate (complete plus partial response (CR+PR)) [7]: 18%
- Median time to response [7]: 43 days
- Best Confirmed Response: CR + PR + MR [7, 12]: 108 (35) n (%)
- Best Confirmed Response: Complete Response [7, 12]: 2 (<1) n (%)
- Best Confirmed Response: Minor Response [7, 12]: 52 (17) n (%)
- Best Confirmed Response: Near CR: IF+ [7, 12]: 3 (<1) n (%)
- Best Confirmed Response: No Change [7, 12]: 149 (48) n (%)
- Best Confirmed Response: Not Evaluable [7, 12]: 14 (4) n (%)
- Best Confirmed Response: Overall Response Rate (CR + PR) [7, 12]: 56 (18) n (%)
- Best Confirmed Response: Partial Response [7, 12]: 54 (17) n (%)
- Best Confirmed Response: Progressive Disease [7, 12]: 41 (13) n (%)
- Best Confirmed Response: SWOG Remission [7, 12]: 17 (5) n (%)
